O=C1CCCCCN1
Conditions | solubility (mole fraction)
in acetonitrile, 278.85 K | 0.149
in acetonitrile, 283.65 K | 0.187
in acetonitrile, 288.25 K | 0.236
in acetonitrile, 293.55 K | 0.294
in acetonitrile, 298.45 K | 0.359
in acetonitrile, 303.65 K | 0.427
in acetonitrile, 308.15 K | 0.486
in acetonitrile, 313.15 K | 0.558
in acetonitrile, 318.65 K | 0.637
in acetonitrile, 323.15 K | 0.725
in benzene, 279.25 K | 0.2
in benzene, 284.15 K | 0.232
in benzene, 288.55 K | 0.27
in benzene, 293.15 K | 0.31
in benzene, 297.85 K | 0.361
in benzene, 303.05 K | 0.423
in benzene, 307.25 K | 0.482
in benzene, 313.25 K | 0.566
in benzene, 317.45 K | 0.631
in benzene, 321.75 K | 0.701
in cyclohexane, 283.65 K | 0.0042
in cyclohexane, 288.25 K | 0.00616
in cyclohexane, 292.85 K | 0.00897
in cyclohexane, 297.95 K | 0.0144
in cyclohexane, 302.95 K | 0.0244
in cyclohexane, 307.25 K | 0.0373
in cyclohexane, 312.55 K | 0.0617
in cyclohexane, 318.35 K | 0.108
in cyclohexane, 322.65 K | 0.163
in ethyl acetate, 278.85 K | 0.103
in ethyl acetate, 283.65 K | 0.127
in ethyl acetate, 288.35 K | 0.156
in ethyl acetate, 292.95 K | 0.192
in ethyl acetate, 298.05 K | 0.243
in ethyl acetate, 302.85 K | 0.304
in ethyl acetate, 307.15 K | 0.364
in ethyl acetate, 312.35 K | 0.459
in ethyl acetate, 317.15 K | 0.557
in ethyl acetate, 321.55 K | 0.654
